We go through two compounds from patent publication EP2264054A1, “Cloning, yeast expression, purification and biological activity of a truncated form of the soybean 7S globulin alfa ' subunit involved in Hep G2 cell cholesterol homeostasis” (Indena S.p.A., priority 2009, dated 2010).

The subject of assay [1] is HepG2 cells. Briefly: Degradation of 125I-LDL by HepG2 cells. Format: cell-based, human. The following applies: 1.0 µmol/L.
Method: Cell cultures. […] Cells were grown in monolayers in 90 mm-diameter Petri dishes, and maintained at 37°C in a humidified atmosphere of 95% air, 5% CO2 in MEM supplemented with 10% fetal calf serum (FCS), non essential amino acid solution (1%, v/v), penicillin (10^5 U/L), streptomycin (0.1 g/L), tricine buffer (20 mmol/L, pH 7.4), NaHCO3 (24 mmol/L) and sodium pyruvate (0.11 g/L). For experiments designed to evaluate the LDL receptor modulation, cells were seeded in 35 mm plastic dishes (3-5 x 10^5 cells) and used just before reaching confluence. In all cell culture experiments, the medium was changed every 2-3 days. In order to assess cell viability, culture media from cells exposed to tα' at different concentrations were tested by methyltetrazolium salts (MTT) assay, essentially as described in ref. 9. Cell enzyme leakage was determined by measuring lactate dehydrogenase (LDH) activity, using a kinetic (LDH/LD) diagnostic kit (Sigma Diagnostics). […]
Uptake and degradation of ^125I-LDL. […] Specific uptake (binding + internalization) and degradation of ^l25I-LDL were evaluated as previously reported [2]. […] Differences in cell uptake and degradation of LDL after cell incubation with tα' at different concentrations were determined by ANOVA followed by Dunnett's test. Values are expressed as means ± SD; P values < 0.05 were considered as statistically significant.
The subject of assay [2] is HepG2 cells. Briefly: Uptake of 125I-LDL by HepG2 cells. The following applies: 1.0 µmol/L. The class given is cell-based, human. The text has this:
Cell cultures. The established human hepatoma cell line (HepG2) was obtained from American Type Culture Collection (Rockville, MD). Eagle's minimum essential medium (MEM), fetal calf serum, trypsin-EDTA (1x), penicillin (10^5 U/L), streptomycin ([…]), tricine buffer (1 mmol/L, pH 7.4) and non-essential amino acid solutions (100x) were from GIBCO (Madison, WI). Petri dishes were from COSTAR (Cambridge, MA). Filters were from Millipore (Bedford, MA). The Protein Coomassie Plus Protein Assay kit was purchased from Pierce (Rockford, IL, USA). ^125Iodine, carrier free, in 100 mmol/L NaOH, was from Perkin Elmer Life Sciences (Boston, MA). Sephadex G25 columns (PD10) were from Pharmacia Biotech (Uppsala, Sweden). LDH and MTT kit were from Sigma Diagnostics (Milano-Italy). All other chemicals were of analytical grade from Merck (Darmstadt, Germany). […] Cell enzyme leakage was determined by measuring lactate dehydrogenase (LDH) activity, using a kinetic (LDH/LD) diagnostic kit (Sigma Diagnostics). […]
Uptake and degradation of ^125I-LDL. […] Specific uptake (binding + internalization) and degradation of ^l25I-LDL were evaluated as previously reported. […] Differences in cell uptake and degradation of LDL after cell incubation with tα' at different concentrations were determined by ANOVA followed by Dunnett's test. Values are expressed as means ± SD; P values < 0.05 were considered as statistically significant.

A further assay concerns LDL-R. The following applies: Hep G2 cells exposed to the peptide at 100 µM; cited from earlier work.
[3] abbreviates: 24 h preincubation in MEM with 5% LPDS, then 125I-LDL 7.5 mg/L for 5 h, mean ± SD.

For the compound `CCC(C)(C)C(=O)O[C@H]1C[C@@H](C)C=C2C=C[C@H](C)[C@H](CC[C@@H]3C[C@@H](O)CC(=O)O3)[C@H]21` [Simvastatin], the Degradation with HepG2 cells [1] (setting [3]) is 195 ± 7.9 ng125I-LDL/ mg cell protein; with HepG2 cells [1] (relative to LPDS = 100), 250%. Moreover, the figures for the Uptake with HepG2 cells [2] (setting [3]) and in the assay with HepG2 cells [2] (relative to LPDS = 100) were 250 ± 11.2 ng125I-LDL/ mg cell proteins and 278%, respectively.
In the case of “FVVNATSN [LDL-R transcription stimulating peptide deriving from the 7S globulin β chain, from a soybean hydrolysate and by chemical synthesis]”, the “increased LDL-R transcription” value with LDL-R is reported as “+148%”.
